In article PMC12040169 (PLOS Biology, 2025):

Assay: in vitro
Conditions: human, hela cells, % viability

| Compound | viability at 28.5 h, 10 µM [%] |
| --- | --- |
| Cc1cc(Cl)c(S(=O)(=O)N2CCN(c3ccc(F)cc3)CC2)cc1OCC(N)=O [CBK266439] | 98.3 |
| CCOC(=O)c1c(NC(=O)CSc2ncnc3sc(C)c(C)c23)sc(C)c1C [CBK266440] | 118 |
| O=C(C1=C(O)C(=O)N(CCCN2CCOCC2)C1c1ccccn1)c1ccc(Cl)cc1 (stereo not drawn) [CBK266445] | 112 |
| CC1(C)CC(=O)C2=C(C1)Nc1ncnn1C2c1ccccc1F (stereo not drawn) [CBK266446] | 88 |
| N#Cc1nc(COc2cccc(Cl)c2)oc1NCc1ccncc1 [CBK266447] | 95.7 |
| Cc1cc(C)nc(Nc2n[nH]c(-c3cccc4ccccc34)n2)n1 [CBK266451] | 99.3 |
| Cc1cc(C)nc(NC2=NC3CCCCC3N2C(=O)Nc2ccc(Cl)c(Cl)c2)n1 (stereo not drawn) [CBK266458] | 97.5 |
| CS(=O)(=O)N(CC(=O)NCc1ccccn1)c1cc(Cl)cc(Cl)c1 [CBK266459] | 106 |
| O=C(CSc1nnc2ccc3ccccc3n12)Nc1nsc(-c2ccc(Cl)cc2)n1 [CBK266460] | 99.5 |
| O=C(O)CSC1c2ccccc2Oc2ccc(F)cc21 (stereo not drawn) [CBK266462] | 98 |
| Cc1cc(C)c(C)c(CSCc2nc3ccccc3[nH]2)c1C [CBK266466] | 98.8 |
| NS(=O)(=O)c1ccc(NC(=O)c2cc3c(n(-c4ccccc4)c2=O)CCCC3=O)cc1 [CBK266467] | 115 |
| N#Cc1nc(COc2ccc(Br)cc2)oc1NC1CC1 [CBK266470] | 94.6 |
| CCN1CCN(c2ccc(NC(=O)c3cccc(OCc4ccccc4)c3)cc2)CC1 [CBK266471] | 95 |
| Cc1oc(C)c(C(=O)Nc2cccc(C(=O)O)c2)c1C(=O)Nc1cccc(C(=O)O)c1 [CBK266472] | 108 |
| CC(Nc1nc(N2CCNCC2)nc2ccccc12)c1ccccc1 (stereo not drawn) [CBK266475] | 102 |
| Cc1nc(-c2ccccc2)sc1C(=O)C1=C(O)C(=O)N(CCCN2CCOCC2)C1c1ccco1 (stereo not drawn) [CBK266476] | 111 |
| COc1ccc(OC)c(NC(=O)CC2NCCNC2=O)c1 (stereo not drawn) [CBK266477] | 95.9 |
| COc1ccc(N2C(=O)CC(Nc3ccc(Cc4nc5ccccc5[nH]4)cc3)C2=O)cc1 (stereo not drawn) [CBK266480] | 96.9 |
| Cc1cc(Cl)ccc1OC(C)C(=O)Nc1cc(C(=O)O)cc(C(=O)O)c1 (stereo not drawn) [CBK266483] | 103 |
| CCCc1cc(=O)[nH]c(N/C(=N/C(=O)c2ccccc2)Nc2ccc3c(c2)OCCO3)n1 [CBK266485] | 99.5 |

| Compound | viability at 28.5 h, 10 µM [%] |
| --- | --- |
| O=C(CSc1nc2[nH]ncc2c(=O)n1-c1ccccc1)Nc1nsc(-c2ccccc2)n1 [CBK266486] | 101 |
| COc1cc(S(=O)(=O)N2CCCN(S(=O)(=O)c3cc(OC)c(Cl)cc3OC)CC2)c(OC)cc1Cl [CBK266489] | 99.4 |
| Cc1cc(C)n(C(=O)c2ccc([N+](=O)[O-])cc2N)n1 [CBK266491] | 102 |
| Cc1sc2nc(SCc3nc(-c4ccccc4)no3)n(-c3ccccc3)c(=O)c2c1C [CBK266492] | 110 |
| Cc1c(C(=O)C2=C(O)C(=O)N(CCN3CCOCC3)C2c2ccccn2)cnn1-c1ccccc1 (stereo not drawn) [CBK266493] | 112 |
| Cc1[nH]c2ccccc2c1C(=O)CSc1nc2ccccc2[nH]1 [CBK266494] | 63.6 |
| Cc1cc(Cl)c(S(=O)(=O)NCc2cccs2)cc1OCC(N)=O [CBK266496] | 101 |
| COc1ccc(CCNC(=O)Nc2ccccc2[N+](=O)[O-])cc1 [CBK266497] | 96.8 |
| O=C(CSC1c2ccccc2Oc2ccccc21)Nc1ccccc1C(=O)O [CBK266499] | 98.4 |
| O=C(CSc1ccccc1)Nc1cccc(Oc2ccc3c(c2)C(=O)NC3=O)c1 [CBK266500] | 113 |
| Cc1ccc(CNS(=O)(=O)c2ccc3ccccc3c2)cc1 [CBK266501] | 102 |
| CC(Sc1nc2ccccc2[nH]1)c1nc2ccccc2[nH]1 (stereo not drawn) [CBK266502] | 89.7 |
| CCN1CCN(c2ccc(NC(=O)c3ccc([N+](=O)[O-])c(C)c3)cc2)CC1 [CBK266503] | 115 |
| N=C(Nc1nc(=O)cc(CSc2ccc(Cl)cc2)[nH]1)Nc1cccc2ccccc12 [CBK266504] | 98.9 |
| O=C(C1=C(O)C(=O)N(CCN2CCOCC2)C1c1ccccn1)c1cccs1 (stereo not drawn) [CBK266508] | 99.3 |
| Cc1cc(C)nc(N(C#N)CC(=O)N2c3ccccc3CCc3ccccc32)n1 [CBK266509] | 112 |
| Cc1nc(-c2ccccc2)sc1C(=O)C1=C(O)C(=O)N(CCN2CCOCC2)C1c1ccccc1F (stereo not drawn) [CBK266511] | 103 |
| O=C(c1ccccc1)c1ccc(OCC(O)CN2CCN(c3ccccn3)CC2)cc1 (stereo not drawn) [CBK266513] | 98.3 |
| COc1ccc(N2C(=O)C(CC(=O)Nc3ccc(F)cc3)N(Cc3ccc4c(c3)OCO4)C2=O)cc1 (stereo not drawn) [CBK266515] | 97 |
| Cc1nc(-c2ccccc2)sc1C(=O)C1=C(O)C(=O)N(CCN2CCOCC2)C1c1cccs1 (stereo not drawn) [CBK266520] | 102 |
| CCC(C)NS(=O)(=O)c1ccc(OCC(=O)O)cc1 (stereo not drawn) [CBK266521] | 120 |

| Compound | viability at 28.5 h, 10 µM [%] |
| --- | --- |
| Cn1nnc2cc(C(=O)N(CCO)c3ccccc3)ccc21 [CBK266522] | 95.5 |
| Cc1cc(Cl)c(S(=O)(=O)Nc2cccnc2)cc1OCC(N)=O [CBK266523] | 104 |
| CC(Oc1ccccc1)C(=O)Nc1c[nH]c(=O)[nH]c1=O (stereo not drawn) [CBK266524] | 72.3 |
| O=C(CSc1nnc2sc3ccccc3n12)N1N=CCC1c1ccccc1 (stereo not drawn) [CBK266527] | 87.1 |
| Cc1cccc(Oc2nc3c(C)cccn3c(=O)c2/C=C(\C#N)c2nc3ccccc3[nH]2)c1 [CBK266528] | 104 |
| COc1ccc(C(=O)C2=C(O)C(=O)N(CCCN(C)C)C2c2ccncc2)cc1Cl (stereo not drawn) [CBK266529] | 109 |
| COCc1c(Br)c(C)nc(OCC(=O)O)c1C#N [CBK266532] | 96.9 |
| Cc1cccc(NC(=O)COc2ccccc2CNc2ccc(Br)cc2)c1 [CBK266534] | 101 |
| Cc1cc(Cl)c(S(=O)(=O)Nc2cccc(Br)c2)cc1OCC(N)=O [CBK266535] | 100 |
| Cc1ccc(C(=O)C2=C(O)C(=O)N(CCN(C)C)C2c2ccccn2)o1 (stereo not drawn) [CBK266536] | 119 |
| COc1ccc(C(C)C)cc1S(=O)(=O)NCCN1CCOCC1 [CBK266538] | 112 |
| Cc1c(C(=O)C2=C(O)C(=O)N(Cc3cccnc3)C2c2ccc(F)cc2)cnn1-c1ccccc1 (stereo not drawn) [CBK266541] | 105 |
| Cc1ccc(S(=O)(=O)NC(C)C(=O)Nc2cc(C(F)(F)F)ccc2Cl)cc1 (stereo not drawn) [CBK266546] | 109 |
| Cc1nnc(SCc2cc(=O)nc(Nc3nc(C)c4ccccc4n3)[nH]2)s1 [CBK266549] | 103 |
| O=C(Nc1ccc(S(=O)(=O)N2CCOCC2)cc1)c1ccc(CN2CCc3ccccc3C2)cc1 [CBK266550] | 96.2 |
| COc1cccc(CNC(C)(C)CO)c1OCc1ccc(Cl)cc1 [CBK266552C] | 102 |
| Cc1cc(Cl)c(S(=O)(=O)N2CCN(c3ccccn3)CC2)cc1OCC(N)=O [CBK266553] | 117 |
| Nc1nc(SCC(=O)c2ccc3c(c2)OCCO3)n[nH]1 [CBK266554] | 107 |
| COc1ccc(F)cc1S(=O)(=O)N1CCCN(S(=O)(=O)c2cc(F)ccc2OC)CC1 [CBK266555] | 93.5 |
| CC(C)(C)c1cc(CN2CCCCC2)c(C(=O)O)o1 [CBK266556C] | 97.8 |
| O=C(NCC1(c2ccccc2)CCCC1)c1ccc(NC(=O)C2COc3ccccc3O2)cc1 (stereo not drawn) [CBK266558] | 97.9 |

| Compound | viability at 28.5 h, 10 µM [%] |
| --- | --- |
| COc1cc(S(=O)(=O)NC2CC(C)(C)NC(C)(C)C2)ccc1F [CBK266561] | 92 |
| Cc1ccc(S(=O)(=O)N2CCN(CC(O)COc3ccc4ccccc4c3Cl)CC2)c(C)c1 (stereo not drawn) [CBK266563] | 83 |
| COc1ccc(N2CCN(/C(=N\S(=O)(=O)c3ccc(C)cc3)Nc3nc(C)cc(C)n3)CC2)cc1 [CBK266564] | 99.9 |
| O=[N+]([O-])c1cc(C(F)(F)F)ccc1NCCCNc1nc(N2CCOCC2)nc2ccccc12 [CBK266567] | 112 |
| O=C(CCSc1ccccc1)Nc1ccc(S(=O)(=O)N2CCOCC2)cc1 [CBK266568] | 114 |
| Clc1cccc(Cl)c1CN(Cc1ccccc1)c1ncnc2[nH]cnc12 [CBK266571] | 95.2 |
| Nc1nc(SCC(=O)NCc2ccco2)n[nH]1 [CBK266572] | 94 |
| COc1ccc(N(CC(=O)NC2CC3CCC2C3)S(=O)(=O)c2ccc(C)cc2)cc1 (stereo not drawn) [CBK266574] | 108 |
| COc1cc(CNn2c(C)nnc2S)cc(Br)c1OCC(=O)NC(C)(C)C [CBK266575] | 112 |
| O=C(CSc1nnc2scc(-c3ccccc3)n12)Nc1nsc(-c2ccc(Cl)cc2)n1 [CBK266576] | 95.4 |
| CC12CCC(C(=O)O)(c3nc4cc([N+](=O)[O-])ccc4nc31)C2(C)C (stereo not drawn) [CBK266577K] | 95.6 |
| NS(=O)(=O)c1ccc(CCNC2CC(=O)N(Cc3cccs3)C2=O)cc1 (stereo not drawn) [CBK266579] | 91.1 |
| Nc1nc(SCC(=O)NCc2ccc3c(c2)OCO3)n[nH]1 [CBK266580] | 101 |
| COc1ccc2[nH]c(C(=O)O)c(CCC(=O)O)c2c1 [CBK266582] | 98.1 |
| CCN(CC)CCN1C(=O)C(O)=C(C(=O)c2ccc(C)o2)C1c1ccccn1 (stereo not drawn) [CBK266584] | 109 |
| Cc1cc(Cl)c(S(=O)(=O)NCc2ccccc2)cc1OCC(N)=O [CBK266588] | 104 |
| Cc1cc(Cl)c(S(=O)(=O)Nc2ccon2)cc1OCC(N)=O [CBK266589] | 99.6 |
| CCNc1nc(NCc2ccccc2)nc(Oc2ccc(=O)[nH]n2)n1 [CBK266591] | 104 |
| COc1ccccc1C1C(C(=O)c2sc(C)nc2C)=C(O)C(=O)N1CCCN1CCOCC1 (stereo not drawn) [CBK266592] | 113 |
| Cc1nc(-c2ccccc2)sc1C(=O)C1=C(O)C(=O)N(CCN(C)C)C1c1ccc(Cl)cc1 (stereo not drawn) [CBK266595] | 110 |
| COc1cc(NC(=O)CC2NC3CCCCC3NC2=O)cc(OC)c1 (stereo not drawn) [CBK266597] | 99.1 |
